Several values for one entry are separate records, joined by “and”; a condition that tells them apart may be missing. Identical values can stand only once.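 Step 1: Grow cells in 96-well plates. Step 2: Expose to compound for 48 hours at 5 concentrations. Step 3: Interpolate endpoints linearly; if unreached, use highest concentration. At the GI50, growth is halved. TGI marks complete inhibition of growth.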

Some test systems named below: ACHN renal; DU-145 prostate; HL-60(TB) leukemia; MCF7 breast; MDA-MB-435; PC-3 prostate; T-47D breast.
Test in all cases: NCI tumour cell line growth inhibition, 48 h

On to `O=C(c1ccccc1)c1ccc(Oc2ccc([N+](=O)[O-])cc2[N+](=O)[O-])cc1`, for which the GI50 with ACHN renal is 3.72 µM; in the test on DU-145 prostate it was 3.33 µM; in the test on HL-60(TB) leukemia it was 2.19 µM; in the test on MCF7 breast it was 3.71 µM; in the test with MDA-MB-435 it was 1.82 µM; in the test with PC-3 prostate it was 5.66 µM. Moreover, in the test on T-47D breast, the GI50 was 2.82 µM. In addition, the TGI in the test with ACHN renal was 13.6 µM; in the test with DU-145 prostate it was 12.8 µM; in the test with HL-60(TB) leukemia, 5.89 µM; in the test on MCF7 breast it was 19.7 µM; with MDA-MB-435, 3.98 µM; in the test with PC-3 prostate, over 100 µM. The compound also gave a TGI in the test on T-47D breast of 23.5 µM.

On to `O=CNc1ncn[nH]1`, for which the TGI in the test on ACHN renal, with DU-145 prostate, in the test with HL-60(TB) leukemia, with MCF7 breast, in the test with MDA-MB-435 and in the test on PC-3 prostate was over 100 µM each time. This compound had a TGI with T-47D breast of over 100 µM.

Take `CC1(C)CCC2=C(O1)c1ccccc1C(=O)C2=O`: the GI50 is 1.62 µM and 1.02 µM with ACHN renal; 1.71 µM with DU-145 prostate; 2.83 µM in the test with HL-60(TB) leukemia; 1.53 µM in the test with MCF7 breast; 0.191 µM in the test on MDA-MB-435; 1.24 µM in the test with PC-3 prostate. Further, the GI50 in the test with T-47D breast is 1.49 µM. For the same compound, the TGI was 2.97 µM and 2.18 µM in the test with ACHN renal; 3.08 µM and 1.4 µM in the test with DU-145 prostate; over 100 µM in the test on HL-60(TB) leukemia; 3.6 µM and 1.05 µM in the test with MCF7 breast; 3.01 µM and 6.31 µM in the test with PC-3 prostate; 4.4 µM and 1.87 µM with T-47D breast.

Regarding `C/C(=C\CCc1ccoc1)CC/C=C(\C)CCCN1CCOCC1`, the GI50 with ACHN renal is 8.24 µM; in the test with DU-145 prostate, 10.3 µM; with HL-60(TB) leukemia, 2.5 µM; with MCF7 breast, 2.71 µM; in the test on MDA-MB-435 it was 3.48 µM; in the test with PC-3 prostate, 2.02 µM. For the same compound, in the test on T-47D breast, the GI50 was 3.62 µM. The TGI with ACHN renal worked out at 24.1 µM; with DU-145 prostate, 22.3 µM; in the test on HL-60(TB) leukemia, 5.5 µM; in the test on MCF7 breast it was 11.2 µM; with MDA-MB-435, 13.7 µM; in the test on PC-3 prostate, 10.5 µM. Besides, the TGI with T-47D breast amounted to 13.1 µM.

`CS(=O)(=O)Nc1ccc(-c2cc(-c3ccccc3)cc(C(N)=O)c2N)cc1`: the GI50 in the test with ACHN renal was over 25 µM; in the test on DU-145 prostate, over 25 µM; in the test with HL-60(TB) leukemia it was over 23.4 µM; in the test with MCF7 breast it was over 20.5 µM; in the test on MDA-MB-435, over 25 µM; in the test with PC-3 prostate, 14.2 µM. Further, in the test with T-47D breast, the GI50 was over 21.5 µM. The TGI with ACHN renal, in the test on DU-145 prostate, in the test with HL-60(TB) leukemia, with MCF7 breast, with MDA-MB-435 and in the test on PC-3 prostate was over 25 µM throughout. The compound further registered a TGI in the test with T-47D breast of over 25 µM.

For `NC1CCC(Nc2nc(NCc3ccc(-c4cccs4)nc3)c3ncn(C4CCCC4)c3n2)CC1` (centres undefined), the GI50 in the test with ACHN renal is 0.276 µM; with DU-145 prostate it was 0.0933 µM; with HL-60(TB) leukemia it was 0.0206 µM; with MCF7 breast, 0.0301 µM; with MDA-MB-435, 0.0282 µM; in the test with PC-3 prostate, 0.0337 µM. In the test with T-47D breast, the GI50 is 0.033 µM. Moreover, the TGI in the test on ACHN renal amounted to 1.01 µM; in the test on DU-145 prostate, 4.42 µM; with HL-60(TB) leukemia it was 0.0644 µM; in the test with MCF7 breast, 1.14 µM; in the test on MDA-MB-435, 1.08 µM; with PC-3 prostate it was 1.04 µM. The compound further registered a TGI with T-47D breast of 0.699 µM.

`COC1CCN(C(=O)c2cc(Cc3n[nH]c(=O)c4ccccc34)ccc2F)CC1`: the GI50 was over 100 µM with ACHN renal; over 85.7 µM in the test with DU-145 prostate; over 85.3 µM in the test on HL-60(TB) leukemia; 60.8 µM in the test with MCF7 breast; over 100 µM with MDA-MB-435; over 87.6 µM with PC-3 prostate. Further, the GI50 with T-47D breast was 53.6 µM. The TGI in the test on ACHN renal, with DU-145 prostate, in the test on HL-60(TB) leukemia, with MCF7 breast, with MDA-MB-435 and in the test with PC-3 prostate was over 100 µM throughout. In the test on T-47D breast, this compound came in with a TGI of over 100 µM.

For `CN(Cc1cc(Br)cc(Br)c1O)Cc1cc(Br)cc(Br)c1O`, the GI50 in the test with ACHN renal was 1.63 µM; in the test on DU-145 prostate it was 5.48 µM; with HL-60(TB) leukemia, 1.08 µM; in the test on MCF7 breast it was 2.96 µM; in the test with MDA-MB-435, 3.79 µM; with PC-3 prostate, 4.37 µM. In addition, in the test with T-47D breast, the GI50 was 2.27 µM. Besides, the TGI worked out at 18.9 µM in the test on ACHN renal; 22.2 µM in the test with DU-145 prostate; 10.9 µM in the test with HL-60(TB) leukemia; 15 µM in the test with MCF7 breast; 22.6 µM in the test with MDA-MB-435; 25 µM in the test on PC-3 prostate. This compound registered a TGI in the test on T-47D breast of 23.6 µM.

Turning to `O=C1C(=O)c2c(nc3ccc(Br)cn23)-c2ccccc21`, the GI50 in the test on ACHN renal is 0.452 µM; with DU-145 prostate it was 0.483 µM; with HL-60(TB) leukemia, 0.242 µM; with MCF7 breast it was 0.385 µM; in the test with MDA-MB-435 it was 0.185 µM; in the test on PC-3 prostate, 0.688 µM. In addition, in the test with T-47D breast, the GI50 is 1.44 µM. The TGI was 1.55 µM with ACHN renal; 1.03 µM in the test on DU-145 prostate; 0.624 µM in the test on HL-60(TB) leukemia; 1.08 µM in the test on MCF7 breast; 0.334 µM with MDA-MB-435; 2.47 µM with PC-3 prostate. This compound had a TGI in the test with T-47D breast of 3.89 µM.

As to `CCCCCCCCCCCCCC1=NCCN1CCO`, the GI50 is 2.04 µM with ACHN renal; 3.88 µM in the test with DU-145 prostate; 3.11 µM in the test on HL-60(TB) leukemia; 2.4 µM with MCF7 breast; 2.97 µM in the test on MDA-MB-435; 3.37 µM in the test on PC-3 prostate. In the test with T-47D breast, the GI50 was 4.57 µM. The TGI with ACHN renal was 4.68 µM; with DU-145 prostate it was 15.7 µM; in the test with HL-60(TB) leukemia, over 100 µM; with MCF7 breast, 6.89 µM; in the test with MDA-MB-435 it was 9.07 µM; with PC-3 prostate, over 34.5 µM. Also, the TGI with T-47D breast came to 13.1 µM.

In the case of `CN(C)CCNC(=O)C(C)(C)Oc1ccc(C(=O)c2ccc(Cl)cc2)cc1Cl`, the TGI in the test with ACHN renal was 23 µM; with DU-145 prostate it was 26.1 µM; in the test with HL-60(TB) leukemia, over 29.1 µM; with MCF7 breast it was 24.3 µM; with MDA-MB-435 it was 17.2 µM; with PC-3 prostate, 24 µM. Moreover, the TGI in the test on T-47D breast came to 24.4 µM. In addition, the GI50 with DU-145 prostate is 2.7 µM; in the test with HL-60(TB) leukemia it was 2.82 µM; in the test with MCF7 breast, 3.8 µM; with PC-3 prostate it was 5.84 µM; in the test with T-47D breast, 5.87 µM.

The record behind these values is PubChem BioAssay (NCI).
